Experimental data taken from patent US11752166B2, “Combination therapy for treatment of HCV” (COCRYSTAL PHARMA, INC., priority 2018, dated 2023).

System: HCV GT1b (Con1, HCV-1b) replicon
Assay: HCV GT1b replicon 2-drug combination assay (firefly luciferase, MacSynergy II)
Format: cell-based, Hepatitis C virus
Parameters: Synergy volume / Antagonism volume: unit not given here
Settings: for Antagonism volume / Synergy volume: 3 days, 0.125-8x EC50
Method: Materials: Cells—The HCV GT1b (Con1, HCV-1b) replicon cells were generated and provided by WuXi AppTec. The HCV-1b replicon cells are Huh7 cells stably transfected with the HCV GT1b replicon containing the HCV subgenome, resistance selection gene NEO and reporter gene firefly luciferase.
Software—HCV replicon data was analyzed using MacSynergy™ II software.
Methods: This study was to assess combination effects of the Compound A with other HCV antivirals on HCV replicon replication in the HCV GT1b replicon assay.
The 2-drug combination experiment was designed using a checkboard cross pattern of 7 drug concentrations of each agent, including each agent alone, in triplicate, plated with the Automated Liquid Workstation (Labcyte, Echo555). The concentrations of the test compounds were 0.125, 0.25, 0.5, 1, 2, 4, 8× EC50 values. The EC50 values of the test compounds were determined in a separate HCV GT1b replicon assay. The regimens of the compound combinations are listed in Table 1—where each regimen includes Compound A as the first compound. The final concentration of DMSO in the cell culture medium was 0.5%.
The HCV-1b cells were seeded at a density of 8,000 cells per well in 96-well plates and cultured in DMEM containing 10% FBS at 5% CO2 and 37° C. The replicon cells were treated with the compounds for 3 days.
The antiviral activity of the compounds was determined by monitoring activity of the replicon reporter firefly luciferase using Bright Glo in accordance with the protocol provided by the supplier. The combination indices were calculated using the MacSynergy™ II software. A positive combination index value indicates synergism, and a negative combination index value indicates antagonism.

[1] = 2nd inhibitor (NS3 protease inhibitor table, incl. ribavirin) in combination with Compound A
[2] = 2nd inhibitor (NS5B nucleoside inhibitor) in combination with Compound A
[3] = 2nd inhibitor (NS5A inhibitor) in combination with Compound A

| SMILES | Combination regimen effect [1] | Antagonism volume [1] | Synergy volume [1] | Combination regimen effect [3] | Antagonism volume [3] | Synergy volume [3] | further results |
| --- | --- | --- | --- | --- | --- | --- | --- |
| C=C[C@@H]1C[C@]1(NC(=O)[C@@H]1C[C@@H](Oc2ncc(OC)c3ccc(Cl)cc23)CN1C(=O)[C@@H](NC(=O)OC(C)(C)C)C(C)(C)C)C(=O)NS(=O)(=O)C1CC1 [Asunaprevir] | Additive | −1.32 | 4.9 |  |  |  |  |
| CNC(=O)c1c(-c2ccc(F)cc2)oc2cc(N(CCCCCOCc3ccc(C(=O)O)cc3)S(C)(=O)=O)c(C3CC3)cc12 [Compound A] |  |  |  |  |  |  | Combination effect (with HCV NS5B nucleoside inhibitors, NS5A inhibitors, NS3 protease inhibitors, NS3 helicase inhibitors, and ribavirin): either additive or synergistic effect |
| CC(C)OC(=O)[C@@H](C)NP(=O)(OC[C@@H]1O[C@H](n2ccc(NO)nc2=O)[C@@](C)(O)[C@H]1O)Oc1ccccc1 (stereo partly drawn) [Compound B] |  |  |  |  |  |  | Combination regimen effect [2]: Additive; Antagonism volume [2]: 0.00; Synergy volume [2]: 3.30 |
| COC(=O)N[C@H](C(=O)N1C[C@H](SC)C[C@@H]1c1ncc(-c2ccc(-c3ccc(-c4[nH]c([C@@H]5CCCN5C(=O)[C@@H](NC(=O)OC)c5ccccc5)nc4Cl)cc3)cc2)[nH]1)c1ccccc1 [Compound C] |  |  |  | Additive | 0 | 3.57 |  |
| COC(=O)N[C@H](C(=O)N1CCC[C@H]1c1nc(-c2ccc(-c3ccc(-c4c[nH]c([C@@H]5CCCN5C(=O)[C@@H](NC(=O)OC)C(C)C)n4)cc3)cc2)c[nH]1)C(C)C [Daclatasvir] |  |  |  |  | −3.05 | 33.47 |  |
| CC(C)(C)[C@@H]1NC(=O)O[C@@H]2CCC[C@H]2OC/C=C/C(F)(F)c2nc3ccccc3nc2O[C@@H]2C[C@@H](C(=O)N[C@]3(C(=O)NS(=O)(=O)C4(C)CC4)C[C@H]3C(F)F)N(C2)C1=O [Glecaprevir] | Minor synergism | 0.00 | 47.37 |  |  |  |  |
| COC(=O)N[C@H](C(=O)N1CC2(CC2)C[C@H]1c1nc(-c2ccc3c(c2)C(F)(F)c2cc(-c4ccc5[nH]c([C@@H]6[C@H]7CC[C@H](C7)N6C(=O)[C@@H](NC(=O)OC)C(C)C)nc5c4)ccc2-3)c[nH]1)C(C)C [Ledipasvir] |  |  |  | Minor synergy | −1.08 | 38.55 |  |
| COC(=O)N[C@H](C(=O)N1CCC[C@H]1c1nc2cc([C@H]3CC[C@H](c4cc5nc([C@@H]6CCCN6C(=O)[C@@H](NC(=O)OC)[C@@H](C)OC)[nH]c5cc4F)N3c3cc(F)c(N4CCC(c5ccc(F)cc5)CC4)c(F)c3)c(F)cc2[nH]1)[C@@H](C)OC [Pibrentasvir] |  |  |  | Additive | −24.59 | 5.7 |  |
| NC(=O)c1ncn([C@@H]2O[C@H](CO)[C@@H](O)[C@H]2O)n1 [Ribavirin] | Additive | −9.76 | 0.24 |  |  |  |  |
| COc1ccc2c(O[C@@H]3C[C@H]4C(=O)N[C@]5(C(=O)NS(=O)(=O)C6CC6)C[C@H]5/C=C\CCCCN(C)C(=O)[C@@H]4C3)cc(-c3nc(C(C)C)cs3)nc2c1C [Simprevir, Simeprevir] | Additive | 0.00 | 13.39 |  |  |  |  |
| CC(C)OC(=O)[C@H](C)N[P@](=O)(OC[C@H]1O[C@@H](n2ccc(=O)[nH]c2=O)[C@](C)(F)[C@@H]1O)Oc1ccccc1 [Sofosbuvir] |  |  |  |  |  |  | Combination regimen effect [2]: Additive; Antagonism volume [2]: 0.00; Synergy volume [2]: 9.47 |
| COC[C@H]1C[C@@H](c2nc(-c3ccc4c(c3)COc3cc5c(ccc6nc([C@@H]7CC[C@H](C)N7C(=O)[C@@H](NC(=O)OC)C(C)C)[nH]c65)cc3-4)c[nH]2)N(C(=O)[C@H](NC(=O)OC)c2ccccc2)C1 [Velpatasvir] |  |  |  | Additive | −7.92 | 0.76 |  |
